Measurements published in PubChem BioAssay (NCI).
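Cells were grown in 96-well plates and exposed to each compound for 48 hours at five concentrations; endpoints were interpolated linearly between bracketing concentrations, or set to the highest concentration if not reached. Abbreviation: GI50, concentration required for 50% inhibition of growth. TGI denotes the concentration required for complete inhibition of growth.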

Legend:
Assay in all cases: NCI anticancer screen, dose series, 48 h
786-0 renal = test system: 786-0 renal
A498 renal = test system: A498 renal
A549 NSCLC = test system: A549 NSCLC
ACHN renal = test system: ACHN renal
BT-549 breast = test system: BT-549 breast
CAKI-1 renal = test system: CAKI-1 renal
CCRF-CEM leukemia = test system: CCRF-CEM leukemia
COLO 205 colon = test system: COLO 205 colon
DU-145 prostate = test system: DU-145 prostate
EKVX NSCLC = test system: EKVX NSCLC
HCC-2998 colon = test system: HCC-2998 colon
HCT-116 colon = test system: HCT-116 colon
HCT-15 colon = test system: HCT-15 colon
HL-60(TB) leukemia = test system: HL-60(TB) leukemia
HOP-62 NSCLC = test system: HOP-62 NSCLC
HOP-92 NSCLC = test system: HOP-92 NSCLC
HS 578T breast = test system: HS 578T breast
HT29 colon = test system: HT29 colon
IGROV1 ovarian = test system: IGROV1 ovarian
K-562 leukemia = test system: K-562 leukemia
KM12 colon = test system: KM12 colon
LOX IMVI melanoma = test system: LOX IMVI melanoma
M14 melanoma = test system: M14 melanoma
MALME-3M melanoma = test system: MALME-3M melanoma
MCF7 breast = test system: MCF7 breast
MDA-MB-231 breast = test system: MDA-MB-231 breast
MDA-MB-435 = test system: MDA-MB-435
MDA-MB-468 breast = test system: MDA-MB-468 breast
MOLT-4 leukemia = test system: MOLT-4 leukemia
NCI-H226 lung = test system: NCI-H226 lung
NCI-H23 lung = test system: NCI-H23 lung
NCI-H460 lung = test system: NCI-H460 lung
NCI-H522 lung = test system: NCI-H522 lung
OVCAR-3 ovarian = test system: OVCAR-3 ovarian
OVCAR-4 ovarian = test system: OVCAR-4 ovarian
OVCAR-5 ovarian = test system: OVCAR-5 ovarian
OVCAR-8 ovarian = test system: OVCAR-8 ovarian
PC-3 prostate = test system: PC-3 prostate
RPMI-8226 leukemia = test system: RPMI-8226 leukemia
RXF 393 renal = test system: RXF 393 renal
SF-268 CNS = test system: SF-268 CNS
SF-295 CNS = test system: SF-295 CNS
SF-539 CNS = test system: SF-539 CNS
SK-MEL-2 melanoma = test system: SK-MEL-2 melanoma
SK-MEL-28 melanoma = test system: SK-MEL-28 melanoma
SK-MEL-5 melanoma = test system: SK-MEL-5 melanoma
SK-OV-3 ovarian = test system: SK-OV-3 ovarian
SN12C renal = test system: SN12C renal
SNB-19 CNS = test system: SNB-19 CNS
SR leukemia = test system: SR leukemia
SW-620 colon = test system: SW-620 colon
TK-10 renal = test system: TK-10 renal
U251 CNS = test system: U251 CNS
UACC-257 melanoma = test system: UACC-257 melanoma
UACC-62 melanoma = test system: UACC-62 melanoma
UO-31 renal = test system: UO-31 renal
SNB-75 CNS = test system: SNB-75 CNS
T-47D breast = test system: T-47D breast

## Cc1ccc2nc(COc3ccc(C(=O)NNC(=O)Nc4ccc(Cl)c(C(F)(F)F)c4)cc3)[nH]c2c1
786-0 renal
  GI50: 14.6 µM
  TGI: 41.6 µM
A498 renal
  GI50: 75.9 µM
  TGI: > 100 µM
A549 NSCLC
  GI50: 7.96 µM
  TGI: 71.1 µM
ACHN renal
  GI50: 27.4 µM
  TGI: > 100 µM
BT-549 breast
  GI50: 13 µM
  TGI: 88.1 µM
CAKI-1 renal
  GI50: 21 µM
  TGI: 64.2 µM
CCRF-CEM leukemia
  GI50: 51.2 µM
  TGI: > 100 µM
COLO 205 colon
  GI50: 21.7 µM
  TGI: 71.8 µM
DU-145 prostate
  GI50: 30.4 µM
  TGI: > 100 µM
EKVX NSCLC
  GI50: 41.8 µM
  TGI: > 100 µM
HCC-2998 colon
  GI50: 28.8 µM
  TGI: > 100 µM
HCT-116 colon
  GI50: 45.1 µM
  TGI: > 100 µM
HCT-15 colon
  GI50: 49.1 µM
  TGI: > 100 µM
HL-60(TB) leukemia
  GI50: > 100 µM
  TGI: > 100 µM
HOP-62 NSCLC
  GI50: 5.68 µM
  TGI: 21.6 µM
HOP-92 NSCLC
  GI50: 5.38 µM
  TGI: 24 µM
HS 578T breast
  GI50: 2.98 µM
  TGI: 53.9 µM
HT29 colon
  GI50: 19.5 µM
  TGI: 84.9 µM
IGROV1 ovarian
  GI50: 9.96 µM
  TGI: 27.2 µM
K-562 leukemia
  GI50: 6.1 µM
  TGI: > 100 µM
KM12 colon
  GI50: 29.5 µM
  TGI: > 100 µM
LOX IMVI melanoma
  GI50: 4.04 µM
  TGI: 18.7 µM
M14 melanoma
  GI50: 8.45 µM
  TGI: > 100 µM
MALME-3M melanoma
  GI50: 2.06 µM
  TGI: 5.06 µM
MCF7 breast
  GI50: 3.61 µM
  TGI: 17.2 µM
MDA-MB-231 breast
  GI50: 6.31 µM
  TGI: 26 µM
MDA-MB-435
  GI50: 5.08 µM
  TGI: 36.5 µM
MDA-MB-468 breast
  GI50: 2.77 µM
  TGI: 7.77 µM
MOLT-4 leukemia
  GI50: 21.6 µM
  TGI: > 100 µM
NCI-H226 lung
  GI50: 12.2 µM
  TGI: 39.7 µM
NCI-H23 lung
  GI50: 10.8 µM
  TGI: 29.7 µM
NCI-H460 lung
  GI50: 7.24 µM
  TGI: 23.4 µM
NCI-H522 lung
  GI50: 13.8 µM
  TGI: 39.7 µM
OVCAR-3 ovarian
  GI50: 24.2 µM
  TGI: > 100 µM
OVCAR-4 ovarian
  GI50: 18 µM
  TGI: 66.8 µM
OVCAR-5 ovarian
  GI50: 26.6 µM
  TGI: > 100 µM
OVCAR-8 ovarian
  GI50: 5.54 µM
  TGI: 47.9 µM
PC-3 prostate
  GI50: 6.71 µM
  TGI: 36.2 µM
RPMI-8226 leukemia
  GI50: 49.8 µM
  TGI: > 100 µM
RXF 393 renal
  GI50: 6.32 µM
  TGI: 22 µM
SF-268 CNS
  GI50: 6.57 µM
  TGI: > 100 µM
SF-295 CNS
  GI50: 12.3 µM
  TGI: 25.9 µM
SF-539 CNS
  GI50: 4 µM
  TGI: 20.1 µM
SK-MEL-2 melanoma
  GI50: 15.9 µM
  TGI: 44.7 µM
SK-MEL-28 melanoma
  GI50: 2.94 µM
  TGI: 9.25 µM
SK-MEL-5 melanoma
  GI50: 11.8 µM
  TGI: 28.4 µM
SK-OV-3 ovarian
  GI50: 21.2 µM
  TGI: 54.1 µM
SN12C renal
  GI50: 10.3 µM
  TGI: 50 µM
SNB-19 CNS
  GI50: 5.59 µM
  TGI: 19.9 µM
SR leukemia
  GI50: 8.46 µM
  TGI: > 100 µM
SW-620 colon
  GI50: 10.7 µM
  TGI: 36.9 µM
TK-10 renal
  GI50: 49.4 µM
  TGI: > 100 µM
U251 CNS
  GI50: 4.13 µM
  TGI: 17.9 µM
UACC-257 melanoma
  GI50: 5.11 µM
  TGI: 58 µM
UACC-62 melanoma
  GI50: 5.31 µM
  TGI: 19.8 µM
UO-31 renal
  GI50: > 100 µM
  TGI: > 100 µM

## O=c1cc(-c2ccccc2)oc2cc(OCCCNCc3ccccc3)cc(O)c12
786-0 renal
  GI50: 2.98 µM
  TGI: 15.5 µM
A498 renal
  GI50: 3.94 µM
  TGI: 16.9 µM
A549 NSCLC
  GI50: 4.33 µM
  TGI: 46.4 µM
ACHN renal
  GI50: 3.42 µM
  TGI: 14.2 µM
BT-549 breast
  GI50: 8.5 µM
  TGI: 22.2 µM
CAKI-1 renal
  GI50: 2.41 µM
  TGI: 11 µM
CCRF-CEM leukemia
  GI50: 5.29 µM
  TGI: > 100 µM
COLO 205 colon
  GI50: 1.98 µM
  TGI: 3.82 µM
DU-145 prostate
  GI50: 7.59 µM
  TGI: 20.4 µM
EKVX NSCLC
  GI50: 13.8 µM
  TGI: 36.4 µM
HCC-2998 colon
  GI50: 1.91 µM
  TGI: 3.64 µM
HCT-116 colon
  GI50: 3.72 µM
  TGI: 27.7 µM
HCT-15 colon
  GI50: 3.54 µM
  TGI: 13.1 µM
HL-60(TB) leukemia
  GI50: 1.89 µM
  TGI: 5.03 µM
HOP-62 NSCLC
  GI50: 11.5 µM
  TGI: 44.4 µM
HOP-92 NSCLC
  GI50: 1.56 µM
  TGI: 17.1 µM
HS 578T breast
  GI50: 4.08 µM
  TGI: 33.7 µM
HT29 colon
  GI50: 3.15 µM
  TGI: 27.3 µM
IGROV1 ovarian
  GI50: 3.37 µM
  TGI: 15.7 µM
K-562 leukemia
  GI50: 3.16 µM
  TGI: > 100 µM
KM12 colon
  GI50: 3.77 µM
  TGI: 14.5 µM
LOX IMVI melanoma
  GI50: 1.84 µM
  TGI: 3.92 µM
M14 melanoma
  GI50: 2.64 µM
  TGI: 6.88 µM
MALME-3M melanoma
  GI50: 1.53 µM
  TGI: 3.2 µM
MCF7 breast
  GI50: 2.61 µM
  TGI: 10.3 µM
MDA-MB-231 breast
  GI50: 2.89 µM
  TGI: 12.9 µM
MDA-MB-435
  GI50: 10.1 µM
  TGI: 21.7 µM
MDA-MB-468 breast
  GI50: 2.08 µM
  TGI: 5.21 µM
MOLT-4 leukemia
  GI50: 3.53 µM
  TGI: > 100 µM
NCI-H226 lung
  GI50: 11.1 µM
  TGI: 41.9 µM
NCI-H23 lung
  GI50: 11.9 µM
  TGI: 26.3 µM
NCI-H460 lung
  GI50: 4.15 µM
  TGI: 20.8 µM
NCI-H522 lung
  GI50: 6.21 µM
  TGI: 26.2 µM
OVCAR-3 ovarian
  GI50: 10 µM
  TGI: 23.7 µM
OVCAR-4 ovarian
  GI50: 2.78 µM
  TGI: 8.84 µM
OVCAR-5 ovarian
  GI50: 10 µM
  TGI: 22.9 µM
OVCAR-8 ovarian
  GI50: 10.2 µM
  TGI: > 100 µM
PC-3 prostate
  GI50: 5.05 µM
  TGI: 32.4 µM
RPMI-8226 leukemia
  GI50: 3.46 µM
  TGI: > 100 µM
RXF 393 renal
  GI50: 1.97 µM
  TGI: 8.11 µM
SF-268 CNS
  GI50: 4.81 µM
  TGI: 30.3 µM
SF-295 CNS
  GI50: 4.72 µM
  TGI: 18 µM
SF-539 CNS
  GI50: 5.64 µM
  TGI: 18.7 µM
SK-MEL-2 melanoma
  GI50: 6.43 µM
  TGI: 19.7 µM
SK-MEL-28 melanoma
  GI50: 2.31 µM
  TGI: 5.39 µM
SK-MEL-5 melanoma
  GI50: 5.04 µM
  TGI: 16.9 µM
SK-OV-3 ovarian
  GI50: 10.2 µM
  TGI: 22.6 µM
SN12C renal
  GI50: 4.19 µM
  TGI: 24.6 µM
SNB-19 CNS
  GI50: 10.4 µM
  TGI: 31.2 µM
SNB-75 CNS
  GI50: 2.4 µM
  TGI: 16.5 µM
SR leukemia
  GI50: 2.91 µM
  TGI: > 100 µM
SW-620 colon
  GI50: 5.98 µM
  TGI: 21.1 µM
T-47D breast
  GI50: 2.81 µM
  TGI: 8.68 µM
TK-10 renal
  GI50: 14.8 µM
  TGI: 28.8 µM
U251 CNS
  GI50: 3.69 µM
  TGI: 19.1 µM
UACC-257 melanoma
  GI50: 2.13 µM
  TGI: 5.1 µM
UACC-62 melanoma
  GI50: 1.77 µM
  TGI: 3.49 µM
UO-31 renal
  GI50: 1.15 µM
  TGI: 8.66 µM
